Test results from ChEMBL document CHEMBL1151667, “Chlorochimaphilin: a new antibiotic from Moneses uniflora” (1996).
In brackets after ≈: the same amount, converted by molar mass. Activity calls are given as the source filed them. The calls are words filed in the database; no cut-off is given here.

Columns and labels:
[1] = system: Escherichia coli; assay: Antimicrobial activity against Escherichia coli DC2 after 24 hrs by twofold serial microbroth dilution assay; assay type: functional
[2] = system: Pseudomonas aeruginosa; assay: Antimicrobial activity against Pseudomonas aeruginosa K799 after 24 hrs by twofold serial microbroth dilution assay; assay type: functional
[3] = system: Aspergillus flavus; assay: Antimicrobial activity against Aspergillus flavus after 48 hrs by twofold serial microbroth dilution assay; assay type: functional
[4] = system: Saccharomyces cerevisiae; assay: Antimicrobial activity against Saccharomyces cerevisiae after 48 hrs by twofold serial microbroth dilution assay; assay type: functional
[5] = system: Staphylococcus aureus; assay: Antimicrobial activity against Staphylococcus aureus SAP00017 after 24 hrs by twofold serial microbroth dilution assay; assay type: functional
[6] = system: Fusarium tricinctum; assay: Antimicrobial activity against Fusarium tricinctum after 48 hrs by twofold serial microbroth dilution assay; assay type: functional
[7] = system: Aspergillus fumigatus; assay: Antimicrobial activity against Aspergillus fumigatus after 48 hrs by twofold serial microbroth dilution assay; assay type: functional
[8] = system: Pseudomonas aeruginosa; assay: Antimicrobial activity against Pseudomonas aeruginosa Z61 after 24 hrs by twofold serial microbroth dilution assay; assay type: functional
[9] = system: Nannizzia gypsea; assay: Antimicrobial activity against Microsporum gypseum after 48 hrs by twofold serial microbroth dilution assay; assay type: functional
[10] = system: Candida albicans; assay: Antimicrobial activity against Candida albicans after 48 hrs by twofold serial microbroth dilution assay; assay type: functional
[11] = system: Mycobacterium avium; assay: Antimicrobial activity against Mycobacterium avium 724 ATCC 25291 at 100 ug/disk after 2 weeks by disk diffusion method; assay type: functional, organism-based
[12] = system: Staphylococcus aureus; assay: Antimicrobial activity against Staphylococcus aureus RN4220 after 24 hrs by twofold serial microbroth dilution assay; assay type: functional; conditions: RN4220, 24 h
[13] = system: Candida albicans; assay: Antimicrobial activity against Candida albicans CAND105 after 48 hrs by twofold serial microbroth dilution assay; assay type: functional
[14] = system: Escherichia coli; assay: Antimicrobial activity against Escherichia coli UB1005 after 24 hrs by twofold serial microbroth dilution assay; conditions: UB1005, 24 h
[15] = system: Yarrowia lipolytica; assay: Antimicrobial activity against Candida lipolytica after 48 hrs by twofold serial microbroth dilution assay; assay type: functional
[16] = system: Bacillus subtilis; assay: Antimicrobial activity against Bacillus subtilis Vernon after 24 hrs by twofold serial microbroth dilution assay; assay type: functional
[17] = system: Mycobacterium tuberculosis; assay: Antimicrobial activity against Mycobacterium tuberculosis 107 ATCC 35801 at 100 ug/disk after 4 weeks by disk diffusion method; assay type: functional, organism-based
[18] = system: Respiratory syncytial virus; assay: Antiviral activity against Respiratory syncytial virus assessed as effect on virus-induced cytopathic effect at 200 ug/ml after 3 days; assay type: functional, organism-based
[19] = system: Human alphaherpesvirus 1; assay: Antiviral activity against Herpes simplex virus 1 assessed as effect on virus-induced cytopathic effect at 200 ug/ml after 3 days; assay type: functional, organism-based
[20] = system: Escherichia coli; assay: Antimicrobial activity against Escherichia coli UB1005 at <=800 ug/ml after 24 hrs by twofold serial microbroth dilution assay; assay type: functional, organism-based
[21] = system: Pseudomonas aeruginosa; assay: Antimicrobial activity against Pseudomonas aeruginosa Z61 at <=800 ug/ml after 24 hrs by twofold serial microbroth dilution assay; assay type: functional, organism-based
[22] = system: Staphylococcus aureus; assay: Antimicrobial activity against Staphylococcus aureus SAP00017 at <=800 ug/ml after 24 hrs by twofold serial microbroth dilution assay; assay type: functional, organism-based
[23] = system: Bacillus subtilis; assay: Antimicrobial activity against Bacillus subtilis Vernon at <=800 ug/ml after 24 hrs by twofold serial microbroth dilution assay; assay type: functional, organism-based
[24] = system: Candida albicans; assay: Antimicrobial activity against Candida albicans CAND105 at <=800 ug/ml after 48 hrs by twofold serial microbroth dilution assay; assay type: functional, organism-based
[25] = system: Escherichia coli; assay: Antimicrobial activity against Escherichia coli DC2 at <=800 ug/ml after 24 hrs by twofold serial microbroth dilution assay; assay type: functional, organism-based
[26] = system: Pseudomonas aeruginosa; assay: Antimicrobial activity against Pseudomonas aeruginosa K799 at <=800 ug/ml after 24 hrs by twofold serial microbroth dilution assay; assay type: functional, organism-based
[27] = system: Staphylococcus aureus; assay: Antimicrobial activity against Staphylococcus aureus RN4220 at <=800 ug/ml after 24 hrs by twofold serial microbroth dilution assay; assay type: functional, organism-based

Molecule	MIC [1] [µg/mL]	MIC [2] [µg/mL]	MIC [3] [µg/mL]	MIC [4] [µg/mL]	MIC [5] [µg/mL]	MIC [6] [µg/mL]	MIC [7] [µg/mL]	MIC [8] [µg/mL]	MIC [9] [µg/mL]	MIC [10] [µg/mL]	Activity [11]	MIC [12] [µg/mL]	MIC [13] [µg/mL]	MIC [14] [µg/mL]	MIC [15] [µg/mL]	MIC [16] [µg/mL]	Activity [17]	Activity [18]	Activity [19]	Activity [20]	also measured
CC1=CC(=O)c2ccc(C)c(Cl)c2C1=O	800 (≈ 3630 µM)	> 800	25 (≈ 113 µM)	100 (≈ 453 µM)	25 (≈ 113 µM)	12.5 (≈ 56.6 µM)	25 (≈ 113 µM)	400 (≈ 1810 µM)	3.1 (≈ 14 µM)	100 (≈ 453 µM)	inactive	200 (≈ 906 µM)	50 (≈ 227 µM)	> 800	50 (≈ 227 µM)	12.5 (≈ 56.6 µM)	inactive	inactive	inactive	–	–
NYSTATIN	–	–	> 10	10	–	5	5	–	2.5	10	–	–	–	–	> 10	–	–	–	–	–	–
COc1ccc2c(O)cc(OC)c(O)c2c1O	–	–	–	–	–	–	–	–	–	–	–	–	–	–	–	–	–	–	–	inactive	Activity [21]: inactive; Activity [22]: inactive; Activity [23]: inactive; Activity [24]: inactive; Activity [25]: inactive; Activity [26]: inactive; Activity [27]: inactive
CC1=C(O)C(=O)c2ccc(C)cc2C1=O	> 800	> 800	100 (≈ 495 µM)	> 100	800 (≈ 3960 µM)	25 (≈ 124 µM)	50 (≈ 247 µM)	> 800	12.5 (≈ 61.8 µM)	50 (≈ 247 µM)	inactive	400 (≈ 1980 µM)	80 (≈ 396 µM)	> 800	25 (≈ 124 µM)	800 (≈ 3960 µM)	inactive	inactive	inactive	–	–
CC(=O)Oc1c(C)c(OC(C)=O)c2cc(C)ccc2c1O[C@@H]1O[C@@H](C)[C@H](OC(C)=O)[C@@H](OC(C)=O)[C@H]1OC(C)=O	–	–	–	–	–	–	–	–	–	–	–	–	–	–	–	–	–	–	–	inactive	Activity [21]: inactive; Activity [22]: inactive; Activity [23]: inactive; Activity [24]: inactive; Activity [25]: inactive; Activity [26]: inactive; Activity [27]: inactive
